Assay [1] has as its system Quadruplex DNA. The note with it: time 10.0 min.
In assay [2] the test system is Quadruplex RNA. The note with it: time 10.0 min.
For assay [3], the system named is Quadruplex DNA. The note with it: time 10.0 min. This is another data set of the same source.
In assay [4] the test system is SK-BR-3. As to the kind of experiment: Cytotoxicity against human SK-BR-3 cells assessed as reduction in cell viability at 0.625 to 20 uM incubated for 6 days by SRB assay. The note with it: dose 0.625-20 µM, time 6.0 day. In kind it is functional, cell-based. (Sulforhodamine B stains cellular protein and so reports cell mass.)
In assay [5] the test system is Quadruplex DNA. The note with it: time 10.0 min. The source holds these as a separate data set.
For assay [6], the system named is Quadruplex DNA. The note with it: time 10.0 min. The source holds these as a separate data set.
For assay [7], the system named is Quadruplex RNA. The note with it: time 10.0 min. The source holds these as a separate data set.
The test system of assay [8] is MCF7. Nature of the assay: Cytotoxicity against human MCF7 cells assessed as reduction in cell viability at 0.625 to 20 uM incubated for 6 days by SRB assay. In kind it is functional, cell-based. The note with it: dose 0.625-20 µM, time 6.0 day.
Assay [9] relates to MCF7. Nature of the assay: Induction of DNA damage in human MCF7 cells assessed as increase in gamma-H2AX level at IC50 concentration incubated for 6 days by flow cytometric analysis. In kind it is functional, cell-based. The note with it: time 6.0 day. For orientation: Flow cytometry measures light scatter and fluorescence of single cells or particles in a stream.
The test system of assay [10] is MDA-MB-231. Nature of the assay: Induction of cell cycle arrest in human MDA-MB-231 cells assessed as reduction in G1 phase at IC25 concentration incubated for 6 days by PI staining based flow cytometric analysis. In kind it is functional. The note with it: time 6.0 day.
Assay [11] has as its system Quadruplex DNA. As to the kind of experiment: Binding affinity to c-Myc G4 quadruplex DNA (TGAGGGTGGGTAGGGTGGGTAA) (unknown origin) assessed as Gibbs free energy by ITC analysis. In kind it is nucleic-acid assay.
For assay [12], the system named is MCF7. Nature of the assay: Induction of cell cycle arrest in human MCF7 cells assessed as reduction in G1 phase at IC50 concentration incubated for 6 days by PI staining based flow cytometric analysis. In kind it is functional. The note with it: time 6.0 day.
For assay [13], the system named is MCF7. As to the kind of experiment: Cytotoxicity against human MCF7 cells assessed as reduction in cell viability incubated for 6 days by SRB assay. In kind it is functional, cell-based. The note with it: Homo sapiens, MCF7, 144 h.
Assay [14] concerns Quadruplex DNA. As to the kind of experiment: Binding affinity to HER2 G4 quadruplex DNA (GGAGAAGGAGGAGGTGGAGGAGGAGGG) (unknown origin) assessed as change in entropy by ITC analysis. In kind it is nucleic-acid assay.
Assay [15] relates to Quadruplex DNA. Nature of the assay: Stabilization of G4 quadruplex DNA (unknown origin) in human MCF7 cells at IC50 concentration incubated for 6 days by flow cytometric analysis. In kind it is cell-based. The note with it: time 6.0 day.
Assay [16] relates to MCF7. As to the kind of experiment: Induction of cell cycle arrest in human MCF7 cells assessed as reduction in G1 phase at IC25 concentration incubated for 6 days by PI staining based flow cytometric analysis. In kind it is functional. The note with it: time 6.0 day.
Assay [17] has as its system Quadruplex DNA. Nature of the assay: Binding affinity to c-Myc G4 quadruplex DNA (TGAGGGTGGGTAGGGTGGGTAA) (unknown origin) assessed as binding enthalpy by ITC analysis. In kind it is nucleic-acid assay. Background: ITC needs no label: the signal is the heat of the interaction.
The subject of assay [18] is MDA-MB-231. As to the kind of experiment: Induction of cell cycle arrest in human MDA-MB-231 cells assessed as reduction in G1 phase at IC50 concentration incubated for 6 days by PI staining based flow cytometric analysis. In kind it is functional. The note with it: time 6.0 day.
Assay [19] deals with Quadruplex DNA. Nature of the assay: Stabilization of G4 quadruplex DNA (unknown origin) in human SK-BR-3 cells assessed as increase in G4 motif at IC50 concentration incubated for 6 days by flow cytometric analysis. In kind it is cell-based. The note with it: time 6.0 day.
Assay [20] deals with MDA-MB-231. Nature of the assay: Induction of DNA damage in human MDA-MB-231 cells assessed as increase in gamma-H2AX level at IC25 concentration incubated for 6 days by flow cytometric analysis. In kind it is functional, cell-based. The note with it: time 6.0 day.
The subject of assay [21] is MDA-MB-231. Nature of the assay: Induction of DNA damage in human MDA-MB-231 cells assessed as increase in gamma-H2AX level incubated for 6 days by flow cytometric analysis. The note with it: time 6.0 day. In kind it is functional, cell-based.
Assay [22] concerns Quadruplex DNA. As to the kind of experiment: Binding affinity to c-Myc G4 quadruplex DNA (TGAGGGTGGGTAGGGTGGGTAA) (unknown origin) assessed as change in entropy by ITC analysis. In kind it is nucleic-acid assay.
For assay [23], the system named is SK-BR-3. Nature of the assay: Cytotoxicity against human SK-BR-3 cells assessed as reduction in cell viability incubated for 6 days by SRB assay. In kind it is functional, cell-based. The note with it: Homo sapiens, SK-BR-3, 144 h.
Assay [24] has as its system SK-BR-3. Nature of the assay: Induction of DNA damage in human SK-BR-3 cells assessed as increase in gamma-H2AX level at IC50 concentration incubated for 6 days by flow cytometric analysis. In kind it is functional, cell-based. The note with it: time 6.0 day.
Assay [25] concerns MDA-MB-231. As to the kind of experiment: Induction of DNA damage in human MDA-MB-231 cells assessed as increase in gamma-H2AX level at IC50 concentration incubated for 6 days by flow cytometric analysis. In kind it is functional, cell-based. The note with it: time 6.0 day.
Assay [26] relates to Quadruplex DNA. As to the kind of experiment: Stabilization of G4 quadruplex DNA (unknown origin) in human MCF7 cells at IC25 concentration incubated for 6 days by flow cytometric analysis. The note with it: time 6.0 day. In kind it is cell-based.
Assay [27] relates to SK-BR-3. Nature of the assay: Induction of cell cycle arrest in human SK-BR-3 cells assessed as accumulation of cells at G2/M phase at IC50 concentration incubated for 6 days by PI staining based flow cytometric analysis. In kind it is functional. The note with it: time 6.0 day.
The subject of assay [28] is MCF7. Nature of the assay: Induction of DNA damage in human MCF7 cells assessed as increase in gamma-H2AX level at IC25 concentration incubated for 6 days by flow cytometric analysis. In kind it is functional, cell-based. The note with it: time 6.0 day.
The subject of assay [29] is Quadruplex DNA. As to the kind of experiment: Binding affinity to HER2 G4 quadruplex DNA (GGAGAAGGAGGAGGTGGAGGAGGAGGG) (unknown origin) assessed as Gibbs free energy by ITC analysis. In kind it is nucleic-acid assay.
The test system of assay [30] is Quadruplex DNA. As to the kind of experiment: Binding affinity to c-Myc G4 quadruplex DNA (TGAGGGTGGGTAGGGTGGGTAA) (unknown origin) assessed as equilibrium binding constant (Ka) by ITC analysis. In kind it is nucleic-acid assay.
Assay [31] relates to Quadruplex DNA. As to the kind of experiment: Binding affinity to HER2 G4 quadruplex DNA (GGAGAAGGAGGAGGTGGAGGAGGAGGG) (unknown origin) assessed as binding enthalpy by ITC analysis. In kind it is nucleic-acid assay.
The subject of assay [32] is MDA-MB-231. Nature of the assay: Cytotoxicity against human MDA-MB-231 cells assessed as reduction in cell viability incubated for 6 days by SRB assay. The note with it: Homo sapiens, MDA-MB-231, 144 h. In kind it is functional, cell-based.
The subject of assay [33] is SK-BR-3. As to the kind of experiment: Induction of DNA damage in human SK-BR-3 cells assessed as increase in gamma-H2AX level at IC25 concentration incubated for 6 days by flow cytometric analysis. In kind it is functional, cell-based. The note with it: time 6.0 day.
Assay [34] has as its system MCF7. As to the kind of experiment: Downregulation of c-MYC protein expression in human MCF7 cells at IC50 concentration incubated for 6 days by Western blotting analysis. In kind it is functional, cell-based. The note with it: time 6.0 day.
The test system of assay [35] is SK-BR-3. As to the kind of experiment: Induction of cell cycle arrest in human SK-BR-3 cells assessed as accumulation of cells at G2/M phase at IC25 concentration incubated for 6 days by PI staining based flow cytometric analysis. In kind it is functional. The note with it: time 6.0 day.
Assay [36] relates to Quadruplex DNA. As to the kind of experiment: Binding affinity to HER2 G4 quadruplex DNA (GGAGAAGGAGGAGGTGGAGGAGGAGGG) (unknown origin) assessed as equilibrium binding constant (Ka) by ITC analysis. In kind it is nucleic-acid assay.

The source made the active and inactive calls. The calls are words filed in the database; no cut-off is given here. Some results are limits rather than exact numbers.

From ChEMBL document CHEMBL6153050, “Repurposing FDA-approved drugs to target G-quadruplexes in breast cancer” (Eur J Med Chem, 2025) come the findings set out here.

In the case of `Cc1c(-c2ccccc2)oc2c(C(=O)OCCN3CCCCC3)cccc2c1=O`, the deltaTm1/2 in the assay with Quadruplex DNA [1] was -2.6 °C; in the assay on Quadruplex RNA [2], 5.6 °C; with Quadruplex DNA [3], 9.8 °C; with Quadruplex DNA [5], 4.9 °C; with Quadruplex DNA [6], 4.5 °C; in the assay on Quadruplex RNA [7], 8.5 °C. Besides, the outcome in the assay on SK-BR-3 [4] and in the assay with MCF7 [8] was Active.

As a reminder, the IC50 is the point on the concentration scale where inhibition reaches its midpoint. Broadly, the IC25 is the concentration at which the effect reaches the 25% level. For the molecule `CCc1c2c(nc3ccc(OC(=O)N4CCC(N5CCCCC5)CC4)cc13)-c1cc3c(c(=O)n1C2)COC(=O)[C@]3(O)CC` [IRINOTECAN], the Activity result with MCF7 [9] was “Active; Slightly Lower Dna Damage Observed”; with MDA-MB-231 [21] it was “Dose-dependent-effect”; in the assay with SK-BR-3 [24], “Active; Slightly Lower Dna Damage Observed”; in the assay on MCF7 [28] it was “Active; Slightly Lower Dna Damage Observed”; in the assay on SK-BR-3 [33], “Active; Slightly Lower Dna Damage Observed”. The result with MDA-MB-231 [10], with MCF7 [12], in the assay with Quadruplex DNA [15], with MCF7 [16], in the assay with MDA-MB-231 [18] and in the assay on Quadruplex DNA [19] was Active. Also, the outcome in the assay on MDA-MB-231 [20], in the assay with MDA-MB-231 [25], in the assay on Quadruplex DNA [26], in the assay with SK-BR-3 [27], in the assay on MCF7 [34] and with SK-BR-3 [35] was Active. For the same molecule, the figures for the deltaG in the assay on Quadruplex DNA [11] and with Quadruplex DNA [29] were -7.07 kcal/mol and -7.29 kcal/mol, respectively. In addition, the IC50 in the assay on MCF7 [13] was 480 nM; in the assay with SK-BR-3 [23] it was 500 nM; in the assay with MDA-MB-231 [32], 1600 nM. Besides, the IC25 worked out at 280 nM in the assay on MCF7 [13] (time 6 day, read-out: IC25); 360 nM in the assay with SK-BR-3 [23] (time 6 day, read-out: IC25); 1100 nM in the assay with MDA-MB-231 [32] (time 6 day, read-out: IC25). The TdeltaS was found to be 1.89 kcal/mol in the assay with Quadruplex DNA [14] and 5.21 kcal/mol in the assay on Quadruplex DNA [22]. Further, the deltaTm1/2 is 8.7 °C in the assay on Quadruplex DNA [1]; 6.6 °C in the assay on Quadruplex RNA [2]; 19.6 °C in the assay on Quadruplex DNA [3]; 14.8 °C with Quadruplex DNA [5]; 19 °C in the assay on Quadruplex DNA [6]; more than 20 °C in the assay with Quadruplex RNA [7]. The deltaH was -1.86 kcal/mol in the assay with Quadruplex DNA [17] and -5.4 kcal/mol in the assay with Quadruplex DNA [31]. Also, the Ka with Quadruplex DNA [30] is 1.5 10^5/M; in the assay with Quadruplex DNA [36], 2.2 10^5/M.
